Data taken from paper PMC9600589, “The Heptaprenyl Diphosphate Synthase (Coq1) Is the Target of a Lipophilic Bisphosphonate That Protects Mice against Toxoplasma gondii Infection” (mBio, 2022).
Like-named read-outs stand apart in the source and are kept apart here.

Experiments:
T. gondii RH = experiment: In vitro growth inhibition of RFP-expressing tachyzoites in hTERT fibroblasts; format: cell-based, Toxoplasma gondii; conditions: for rescue of growth inhibition by UQ6: 10 μM UQ6 added to the culture; for IC50 / EC50: Toxoplasma gondii, Fibroblast; for IC50: T. gondii growth in vitro; for EC50: T. gondii RH
Experimental: (§1) Experiments on T. gondii tachyzoites were carried out using parasites expressing red fluorescent protein (RFP) ([66]) with the modification described by Recher et al. ([67]). Tachyzoites were maintained in human fibroblasts (hTERT cells). For drug testing and growth assays, parasites were purified by passing them through a 25-gauge needle, followed by filtration through a 3-μm filter. Human fibroblasts were cultured in 96-well black-sided plates for 24 h before the addition of 4,000 fluorescent tachyzoites/well. […] The EC50s were calculated using Prism software. The UQ6 experiments were performed using the same protocol as described above. The parasites were supplemented with 10 μM UQ6.

[1] = tested on: T. gondii parental strain (TatiΔku80); experiment: Growth inhibition of the parental strain; format: cell-based; conditions: Toxoplasma gondii, read-out: EC50 (TatiΔku80)
Experimental: (§2) Previous work has shown that bisphosphonates can target several enzymes of the isoprenoid biosynthesis pathway, including the farnesyl diphosphate synthase (FPPS), which synthesizes FPP, the preferred substrate of TgCoq1 ([14]). […] We further determined specificity against TgCoq1, by comparing the growth inhibition of the compound against a parental strain (TatiΔku80) versus a cell line overexpressing TgCoq1 (TgCoq1-OE).
as §1

[2] = tested on: T. gondii TgCoq1-OE strain; experiment: Growth inhibition of the TgCoq1 overexpressing strain; format: cell-based; conditions: Toxoplasma gondii, read-out: EC50 TgCoq1-OE strain
Experimental: as §2, §1

recombinant TgCoq1 [3] = biological target: T1, recombinant TgCoq1 (Toxoplasma gondii, UniProt S8EY63); experiment: biochemical
T1 sequence (S8EY63 152-676): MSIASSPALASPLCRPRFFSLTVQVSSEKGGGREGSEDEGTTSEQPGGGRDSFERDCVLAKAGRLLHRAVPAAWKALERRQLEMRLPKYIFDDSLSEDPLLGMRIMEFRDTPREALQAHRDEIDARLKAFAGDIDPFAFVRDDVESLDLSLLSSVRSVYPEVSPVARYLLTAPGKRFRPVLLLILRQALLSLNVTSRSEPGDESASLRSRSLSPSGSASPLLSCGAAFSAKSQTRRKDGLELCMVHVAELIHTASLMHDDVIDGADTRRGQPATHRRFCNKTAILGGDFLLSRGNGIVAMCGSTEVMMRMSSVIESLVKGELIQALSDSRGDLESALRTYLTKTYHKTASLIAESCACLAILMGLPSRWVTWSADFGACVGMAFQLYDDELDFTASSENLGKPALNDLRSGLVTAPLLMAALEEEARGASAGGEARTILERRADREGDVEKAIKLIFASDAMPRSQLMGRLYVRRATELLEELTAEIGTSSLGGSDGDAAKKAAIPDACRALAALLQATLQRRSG

recombinant TgFPPS = recombinant TgFPPS (Toxoplasma gondii, UniProt Q197X6); experiment: biochemical
hTERT cells = experiment: Cytotoxicity to hTERT cells (alamarBlue); conditions: hTERT cells
Experimental: The cytotoxicity was tested using an alamarBlue assay as described by Recher et al. ([67]).

recombinant TgCoq1 [4] = biological target: T1, recombinant TgCoq1; experiment: Kinetic parameters of recombinant TgCoq1 with allylic substrates ([4-14C]IPP incorporation); format: biochemical; conditions: allylic substrate varied, counter substrate IPP (100 μM)
Experimental: (§3) To investigate the biochemical function of TgCoq1, we cloned the TGGT1_269430 gene in an E. coli expression plasmid, which also includes a C-terminal polyhistidine tag to facilitate the purification of the recombinant protein by affinity chromatography. The activity of the purified protein was determined using allylic substrates and cosubstrates, by measuring the amount of [4-^14C]IPP incorporated into butanol-extractable polyprenyl diphosphates (FPP and GGPP) (Fig. 2A). […] A parallel experiment with the already characterized recombinant Trypanosoma cruzi solanesyl diphosphate synthase ([26]), TcSPPS, known to synthesize a 45-carbon product, is shown in the same TLC (Fig. 2B). With the use of a standard enzymatic method ([26]), the kinetic parameters of the reaction were obtained using various concentrations of the allylic substrates (GPP, FPP, GGPP, and IPP) and keeping the concentration of counter substrates at a saturating level (Table 1). Under these experimental conditions, the enzyme was more efficient with FPP than with GGPP (Fig. 2C) or GPP as the substrate (Table 1).
(§4) Kinetic parameters for the recombinant TgCoq1 were calculated from the activity obtained by varying the concentration of the allylic substrates (GPP, FPP, GGPP, and IPP) and keeping the concentration of counter substrates at a saturating level. The nonlinear regression analysis in Sigma plot 10.0 was used to calculate the Kinetic parameters.
(§5) For the enzymatic activity, a standard protocol for medium/long-chain prenyl diphosphate synthase was followed as described previously ([26]). The enzyme activity was measured by assessing the amount of [4-^14C]IPP incorporated into butanol-extractable polyprenyl diphosphates. The standard assay mixture contained, in a final volume of 100 μl, Tris-HCl (100 mM, pH 7.4), 100 μM of any of the allylic substrates FPP/GGPP/GPP, 1 mM MgCl2, 1 mM DTT, 1% vol/vol Triton X-100, 100 μM [4-^14C]-IPP (1 μCi/μMol), and 500 ng of purified protein. Reaction mixtures were incubated at 37°C for 30 min unless otherwise indicated. The radioactive prenyl products were extracted with 1-butanol and washed with NaCl-saturated water, and activities were calculated from the DPM values.

[5] = tested on: T. gondii iΔCoq1 (+ATc) mutant; experiment: Rescue of the growth defect of the iΔCoq1 (+ATc) mutant by ubiquinones; format: cell-based, Toxoplasma gondii
Experimental: To further validate the role of TgCoq1 in the synthesis of ubiquinone, we tested if supplementing cultures of the iΔCoq1 (+ATc) mutant with various ubiquinones would rescue the growth defect (Fig. 7). Because UQ7 is not commercially available, we tested UQ6, UQ8, and UQ10 and observed a remarkable rescue of the growth of the iΔCoq1 (+ATc) mutant by UQ6 (Fig. 7A).
Experiments on T. gondii tachyzoites were carried out using parasites expressing red fluorescent protein (RFP) ([66]) with the modification described by Recher et al. ([67]). Tachyzoites were maintained in human fibroblasts (hTERT cells). For drug testing and growth assays, parasites were purified by passing them through a 25-gauge needle, followed by filtration through a 3-μm filter. Human fibroblasts were cultured in 96-well black-sided plates for 24 h before the addition of 4,000 fluorescent tachyzoites/well. Fluorescence values were measured for up to 9 days, and both excitation (544 nm) and emission (590 nm) were read from the bottom of the plates in a Molecular Devices plate reader ([46]). The EC50s were calculated using Prism software. The UQ6 experiments were performed using the same protocol as described above. […]

[6] = substrate: C=C(C)CCO[P@@](=O)(O)OP(=O)(O)O; experiment: Kinetic parameters of recombinant TgCoq1 with allylic substrates ([4-14C]IPP incorporation); format: biochemical, Toxoplasma gondii; conditions: pH 7.4, 37.0 °C
Experimental: as §3, §4, §5

[7] = substrate: CC(C)=CCC/C(C)=C/CC/C(C)=C/CO[P@@](=O)(O)OP(=O)(O)O; experiment: as above; format: biochemical, Toxoplasma gondii; conditions: other: allylic substrate varied, counter substrate IPP (100 μM); pH 7.4; 37.0 °C
Experimental: as §3, §4, §5

[8] = at 4X EC50 (concentration in μM in brackets)
[9] = at 10X EC50 (concentration in μM in brackets)
[10] = other: counter substrate FPP (100 μM)
[11] = other: counter substrate GGPP (50 μM)
[12] = other: counter substrate GPP (150 μM)

recombinant TgFPPS, sequence (Q197X6 entry or part of it): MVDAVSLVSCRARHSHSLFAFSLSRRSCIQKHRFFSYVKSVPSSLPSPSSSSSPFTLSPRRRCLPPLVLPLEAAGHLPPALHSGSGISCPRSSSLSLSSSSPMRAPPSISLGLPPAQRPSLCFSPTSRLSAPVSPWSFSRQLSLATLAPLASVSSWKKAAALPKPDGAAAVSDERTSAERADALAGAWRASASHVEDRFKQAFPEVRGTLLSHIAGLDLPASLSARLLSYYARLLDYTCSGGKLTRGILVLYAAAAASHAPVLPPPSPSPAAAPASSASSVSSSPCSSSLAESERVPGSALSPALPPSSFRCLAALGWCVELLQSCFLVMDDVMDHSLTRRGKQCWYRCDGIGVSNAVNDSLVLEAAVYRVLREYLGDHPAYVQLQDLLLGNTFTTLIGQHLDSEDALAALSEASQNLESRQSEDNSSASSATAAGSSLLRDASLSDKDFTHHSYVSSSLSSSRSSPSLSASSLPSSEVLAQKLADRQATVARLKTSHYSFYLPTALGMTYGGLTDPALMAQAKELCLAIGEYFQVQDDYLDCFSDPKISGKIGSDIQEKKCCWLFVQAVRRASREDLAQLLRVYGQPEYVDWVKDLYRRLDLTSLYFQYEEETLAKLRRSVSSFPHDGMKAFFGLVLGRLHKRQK

Molecule: O=C1C(O)=C([C@H]2CC[C@H](c3ccc(Cl)cc3)CC2)C(=O)c2ccccc21 [Atovaquone]
- rescue of growth inhibition by UQ6 (T. gondii RH): modest rescue
- EC50 [1]: 0.03 ± 0.01 µM
- EC50 [2]: 0.04 ± 0.01 µM

Molecule: CCCCCCCCC(O)(P(=O)(O)O)P(=O)(O)O [BPH-252]
- IC50 (recombinant TgCoq1 [3]): 2.13 ± 0.52 µM
- IC50 (recombinant TgFPPS): 0.13 ± 0.05 µM
- IC50 (T. gondii RH): 0.85 ± 0.14 µM

Molecule: CCCCCCCCn1cc[n+](CC(P(=O)([O-])O)P(=O)(O)O)c1 (stereo not drawn) [BPH-1217]
- % Inhibition (cytotoxicity) (hTERT cells; [8]): 8.01 ± 1.82%
- % Inhibition (cytotoxicity) (hTERT cells; [9]): 6.19 ± 9.55%

Molecule: CCCCCCCCCCCCCCn1cc[n+](CC(P(=O)([O-])O)P(=O)(O)O)c1 (stereo not drawn) [BPH-1219]
- % Inhibition (cytotoxicity) (hTERT cells; [8]): 3.20 ± 2.89%
- % Inhibition (cytotoxicity) (hTERT cells; [9]): 8.01 ± 1.82%

Molecule: CCCCCCCCCCCn1cc[n+](CC(O)(P(=O)([O-])O)P(=O)(O)O)c1 (stereo not drawn) [BPH-1236]
- % Inhibition (cytotoxicity) (hTERT cells; [8]): 4.13 ± 1.20%
- % Inhibition (cytotoxicity) (hTERT cells; [9]): 9.10 ± 2.38%

Molecule: CCCCCCCCCn1cc[n+](CC(O)(P(=O)([O-])O)P(=O)(O)O)c1 (stereo not drawn) [BPH-1238]
- % Inhibition (cytotoxicity) (hTERT cells; [8]): 9.77 ± 1.18%
- % Inhibition (cytotoxicity) (hTERT cells; [9]): 13.37 ± 6.08%

Molecule: CCCCCCCCCCCCCCCn1cc[n+](CC(O)(P(=O)([O-])O)P(=O)(O)O)c1 (stereo not drawn) [BPH-1325]
- IC50 (recombinant TgCoq1 [3]): 1.69 ± 0.46 µM
- IC50 (recombinant TgFPPS): 0.7 ± 0.06 µM
- IC50 (T. gondii RH): 1.65 ± 0.89 µM

Molecule: CC(C)=CCC/C(C)=C/CC/C(C)=C/CC/C(C)=C/COP(=O)(O)OP(=O)(O)O [GGPP, geranylgeranyl diphosphate]
- Kcat (recombinant TgCoq1 [4]): 0.00275 ± 8.3e-05 s⁻¹
- Km (recombinant TgCoq1 [4]): 14.1 ± 1.43 µM
- Vmax (recombinant TgCoq1 [4]): 82.98 ± 2.51 nmol/min/mg

Molecule: CC(C)=CCC/C(C)=C/COP(=O)(O)OP(=O)(O)O [GPP, geranyl diphosphate]
- Kcat (recombinant TgCoq1 [4]): 0.0002 ± 1.7e-05 s⁻¹
- Km (recombinant TgCoq1 [4]): 0.88 ± 0.6 µM
- Vmax (recombinant TgCoq1 [4]): 6.16 ± 0.45 nmol/min/mg

Molecule: Cc1[nH]c2c(c(=O)c1-c1ccc(Oc3ccc(OC(F)(F)F)cc3)cc1)CCCC2 [JAG-21]
- rescue of growth inhibition by UQ6 (T. gondii RH): not rescued
- EC50 (T. gondii RH; with ubiquinone Q6 (10 μM) in the culture, read-out: EC50 + UQ6): 0.07 ± 0.001 µM
- EC50 (T. gondii RH; without UQ6, read-out: EC50): 0.049 ± 0.02 µM
- % Inhibition (cytotoxicity) (hTERT cells; [8]): 6.40 ± 5.50%
- % Inhibition (cytotoxicity) (hTERT cells; [9]): 5.75 ± 4.98%

Molecule: CC(C)=CCC/C(C)=C/CNCCNC1C2CC3CC(C2)CC1C3 (stereo not drawn) [SQ109]
- EC50 [1]: 1.73 ± 0.38 µM
- EC50 [2]: 1.8 ± 0.47 µM

Molecule: COC1=C(OC)C(=O)C(C/C=C(\C)CC/C=C(\C)CC/C=C(\C)CC/C=C(\C)CC/C=C(\C)CCC=C(C)C)=C(C)C1=O [UQ6, Ubiquinone Q6]
- rescue of growth of the iΔCoq1 mutant with ATc ([5]; 5 μM ubiquinone): rescue
- rescue of growth of the iΔCoq1 mutant with ATc ([5]; 10 μM ubiquinone): rescued

Molecule: COC1=C(OC)C(=O)C(C/C=C(\C)CC/C=C(\C)CC/C=C(\C)CC/C=C(\C)CC/C=C(\C)CC/C=C(\C)CC/C=C(\C)CCC=C(C)C)=C(C)C1=O [UQ8, ubiquinone 8]
- rescue of growth of the iΔCoq1 mutant with ATc ([5]; 5 μM ubiquinone): no rescue

Molecule: COC1=C(OC)C(=O)C(C/C=C(\C)CC/C=C(\C)CC/C=C(\C)CC/C=C(\C)CC/C=C(\C)CC/C=C(\C)CC/C=C(\C)CC/C=C(\C)CC/C=C(\C)CCC=C(C)C)=C(C)C1=O [UQ10, ubiquinone 10]
- rescue of growth of the iΔCoq1 mutant with ATc ([5]; 5 μM ubiquinone): no rescue

B1: recombinant TgCoq1 (Toxoplasma gondii ME49) (protein)
chain: MSIASSPALASPLCRPRFFSLTVQVSSEKGGGREGSEDEGTTSEQPGGGRDSFERDCVLAKAGRLLHRAVPAAWKALERRQLEMRLPKYIFDDSLSEDPLLGMRIMEFRDTPREALQAHRDEIDARLKAFAGDIDPFAFVRDDVESLDLSLLSSVRSVYPEVSPVARYLLTAPGKRFRPVLLLILRQALLSLNVTSRSEPGDESASLRSRSLSPSGSASPLLSCGAAFSAKSQTRRKDGLELCMVHVAELIHTASLMHDDVIDGADTRRGQPATHRRFCNKTAILGGDFLLSRGNGIVAMCGSTEVMMRMSSVIESLVKGELIQALSDSRGDLESALRTYLTKTYHKTASLIAESCACLAILMGLPSRWVTWSADFGACVGMAFQLYDDELDFTASSENLGKPALNDLRSGLVTAPLLMAALEEEARGASAGGEARTILERRADREGDVEKAIKLIFASDAMPRSQLMGRLYVRRATELLEELTAEIGTSSLGGSDGDAAKKAAIPDACRALAALLQATLQRRSG
- Km [6, 10]: 139.11 ± 17.68 µM
- kcat/Km [6, 10]: 134 M⁻¹ s⁻¹
- Km [6, 11]: 141.89 ± 35.75 µM
- kcat/Km [6, 11]: 87.5 M⁻¹ s⁻¹
- Km [6, 12]: 145.48 ± 1.18 µM
- kcat/Km [6, 12]: 6.5 M⁻¹ s⁻¹
- Km [7]: 12.37 ± 1.83 µM
- kcat/Km [7]: 609 M⁻¹ s⁻¹
